Our source for the melting point values is a melting point compilation (Tetko et al.; mined from patent text by program, amines drawn as free bases though some values may be those of a salt).

`CCCS(=O)(=O)c1cc([C@H]2CC[C@H](c3cc(OC)c(OC)c(OC)c3)O2)cc(OC)c1O` (relative stereo) gave a melting point of 168 to 169 °C. As for `CON=Cc1cc(Cl)cc(Cl)c1`, the figure is 53 °C; as for `CC(O)(COc1ccc(-c2ccc(Cl)cc2)cc1)CN1CCCC1` (centres undefined), 121 to 122 °C. The figure for `COc1ccc(-c2ccc(C(N)=O)c(Cl)c2)cc1` is 207 to 208 °C; for `Clc1nc2ccccc2cc1CBr` it is 125 °C. As for `CNC(=O)c1nnn(Cc2ccccc2)c1N`, the figure is 151 to 153 °C; as for `COC(=O)C(=O)c1ccc(OCC(=O)c2cccc3ccccc23)cc1`, 99 to 100 °C.

The compound `Cc1nccn2c(-c3ccnc(NCC(C)(C)CO)n3)c(-c3ccc(F)cc3F)nc12` had a melting point of 174 °C. As for `COC(=O)CC(=O)CC(O)/C=C/C1=C(c2ccc(F)cc2)C=C(c2ccc(F)cc2)CC12CCCC2` (centres undefined), the figure is 96 to 99 °C; as for `COc1cc(-c2nc3ccc(OCCCN(C)C)cc3n2Cc2ccccc2C(F)(F)F)cc(OC)c1OC`, 142 °C; as for `CCON=C(C(=O)OCC)c1csc(N)n1`, 129 °C. Regarding `COc1ccc(-n2c(-c3sc(Nc4ccc(Cl)cc4)nc3-c3ccccc3)nc3ccccc3c2=O)cc1`, the melting point fell in the range of 220 to 221 °C. The figure for `COC1(C)CN(c2ccc(N3C[C@H](CNC(C)=O)OC3=O)cc2F)C1` is 113 to 114 °C; for `O=C(O)CC[C@H](NC(=O)Nc1ccc(N(CCCl)CCCl)cc1)C(=O)O` it is 116 to 118 °C. The figure for `COc1cc(CC(C#N)=CNc2ccccc2)cc(OC)c1C(N)=O` is 288 to 290 °C; for `Nc1cccc(C(=O)OC2CCN(Cc3ccccc3)CC2)c1` it is 70 to 71 °C; for `CC(=O)OCC1=C(C(=O)O)N2C(=O)C(=NSc3ccc(C)cc3)C2SC1` (centres undefined) it is 204 to 206 °C. As to `CCOC(=O)c1ncn2c1c(C)nc1ccccc12`, the melting point was in the range of 192 to 193 °C. For the compound `C1c2c(-c3nn[nH]n3)n[nH]c2[C@@H]2C[C@H]12`, the melting point was determined as 231 °C. The figure for `O=C(O)C1CCc2c(c3ccccc3n2C(=O)c2cccc(Br)c2)C1` (centres undefined) is 185 to 186 °C. `CC1(C)O[C@H]2[C@H](OCc3ccccc3)O[C@H](C(N)=O)[C@H]2O1` had a melting point of 78 °C. As for `CCCCOC(=O)c1ccc(NC(=NC(=O)OCC)SC)cc1`, the figure is 67 to 68 °C; as for `N#Cc1cccc(CN2CCN(c3ccc(N)cc3)CC2)c1`, 79 to 81 °C.

The compound `Cc1nc2c(N)nc3ccccc3c2n1CC1(O)CCCC1` yielded a melting point of 306 to 308 °C. The figure for `COC(=O)C(C)c1ccc2cc(OCc3ccc4ccccc4n3)ccc2c1` (centres undefined) is 91 to 93 °C. The figure for `COc1ccccc1N(CC(=O)N(C)c1ccccc1)C(=O)CN1C(=O)c2ccccc2C1=O` is 199 °C; for `CC(C)(C(=O)c1cccs1)C(=O)c1cccs1` it is 153 to 156 °C; for `O=C(O)CCCCCCOc1cccc(-c2ccccc2)n1` it is 74 to 75 °C. `CC(=O)c1ccc(C2=NC[C@@H](O)[C@H](c3ccccc3)O2)cc1` (racemic) yielded a melting point of 130 °C. The figure for `Cc1c(O)cc2c(c1C)CCC2(C)C` is 117 to 118 °C; for `CCN1C(=O)N(c2cccc(C#N)c2C(F)(F)F)C(=O)C1(C)COC(=O)C(C)C` (centres undefined) it is 85 °C.

Consider `Fc1ccc(Br)c2ccsc12`, for which the melting point lay within 47 to 48 °C. The figure for `Fc1ccc(Oc2ncc3c(-c4ccccc4Cl)n[nH]c3n2)c(F)c1` is 173 to 176 °C; for `CCCCCCCCCCCCCCCCCCOC(=O)c1ccccc1I` it is 35 °C; for `CS(=O)(=O)Nc1cc2oc(Br)c(NC=O)c(=O)c2cc1Oc1ccccc1` it is 237 to 238 °C. With `CCCCCCCN(CCN1CCN(CCCSc2nc3ccccc3o2)CC1)C(=O)Nc1c(C(C)C)cccc1C(C)C`, the melting point fell in the range of 93 to 94 °C. As for `O=C(NCCO)c1[nH]c2ccc(Cl)cc2c1-c1ccccc1F`, the figure is 178 to 180 °C; as for `CCCOc1ccc(S(=O)(=O)N2CC(CN(C)C)C2)cc1-c1nc2c([nH]1)c1nncn1c(=O)n2CCC`, 172 °C; as for `COC1CCC2C3CCC4=CC(=O)C(C)CC4(C)C3CCC12C` (centres undefined), 130 to 145 °C.

`COc1ccccc1COC(=O)C(O)CNCCc1ccc(OC)c(OC)c1` (centres undefined) had a melting point of 79.5 to 82.5 °C.

`Cc1oc(-c2cccs2)nc1COc1ccc(CCCn2ccnc2)cc1` came in with a melting point of 102 to 103 °C. The figure for `CCOC(=O)c1c2ccc(Cl)cc2c(-c2ccccc2)n1CCOS(C)(=O)=O` is 125 to 127 °C. As for `Nc1ncc(-c2noc(-c3cnn4c(C(F)(F)F)cc(-c5ccc(C(F)(F)F)c(F)c5)nc34)n2)cn1`, the figure is 270 °C; as for `Cc1ccc(C)c(-c2cccc(C=CC(=O)O)c2)c1`, 156 to 157 °C. As for `CCNC(=O)n1nc(Oc2c([N+](=O)[O-])cc([N+](=O)[O-])cc2C(F)(F)F)cc1C`, the figure is 169 to 171 °C; as for `CON=C(CBr)c1ccc(Cl)cc1`, 57 to 60 °C. In turn, `CCCCCCCCCCCC(=O)c1ccc2c(Cl)cccc2c1O` had a melting point of 86 to 87 °C. As for `C/C(=C\C(C)O)c1ccc(C2CCCCCC2)cc1` (centres undefined), the figure is 64 to 65 °C; as for `CC(C)(Cc1ccc2oc(-c3nc(C(C)(C)C)cs3)cc2c1)C(=O)O`, 155 to 157 °C. As for `CCCc1c(OC(=S)N(C)C)ccc2c(=O)cc(C(=O)OCC)oc12`, the figure is 132 to 134 °C; as for `Nc1ccc2c(c1)COC2=O`, 177 to 189 °C. As for `CCOC(=O)Nc1ccc2nc(S(N)(=O)=O)sc2c1`, the figure is 223 to 224 °C. In turn, `CCOC(=O)CCNC(=O)C(=Cc1ccccc1)CSC(=O)c1ccccc1` showed a melting point of less than 50 °C. As for `O=C(CN1CCCC1=O)Nc1ccc(-c2ncc(C(=O)O)c(O)n2)cc1`, the figure is greater than 320 °C; as for `CCCCCCCCCCCCCCCCCc1cc(=O)[nH]c(NC(=N)Nc2ccccc2)n1`, 164 °C. The figure for `CC(C)(C)c1ccc(-c2nc(N)sc2-c2ccncc2)cc1` is 254 to 257 °C.

As to `Cc1cc(CCC(=O)OC(C)(C)C)nc(-c2nc(=O)c3ccc(Cl)cc3s2)c1`, the melting point was in the range of 162 to 163 °C.

Turning to `COc1ccc(S(=O)(=O)Nc2cccnc2Nc2ccc(OC(=O)C(C)(C)C)cc2)cc1`, the melting point was 188 to 189 °C. The figure for `CC(C)C(=O)Nc1c(C(=O)c2occc2CO)[nH]c2cc(Cl)ccc12` is 170 to 171 °C. Take `Cc1cc(N(C)Cc2ccc(-c3ccc(C(F)(F)F)cc3)nc2C)cc(C)c1OCC(=O)O`: the melting point fell in the range of 137 to 138 °C. The figure for `COc1cc(Cn2cc3c(CC(C)C)nn(C)c(=O)c3c2)cc(OC)c1OC` is 154 to 155 °C; for `CCOC(=O)C(C)(C)Oc1ccc(OCc2nc(-c3ccc(C(C)(C)C)cc3)no2)cc1` it is 79 to 81 °C; for `CCOP(=O)(CCN1CCCCNc2c1c(=O)c2=O)OCC` it is 103 to 105 °C. The figure for `CC(=O)NC1Cc2ccc(NC(=O)c3ccccc3Br)cc2C1` (centres undefined) is 216 to 217 °C.
